Columns and labels:
[1] = system: GC gene signature in whole blood; assay: GC gene signature in baseline samples of the abatacept SLE phase II trial by reported prednisone dose; assay type: in vivo, human; conditions: SLE patients, dose high (>30 mg), medium (10-30 mg), low (<10 mg) (FIG. 4B)
Protocol: To determine if the glucocorticoid signature could differentiate between patients based on treatment status, expression of the signature in cross-sectional cohorts of patients with SLE or RA were analyzed. Relative to either normal healthy controls or patients treated with other standard-of-care medications, the patients with SLE or RA who were prescribed glucocorticoids had elevated signature scores (FIG. 4A). While the glucocorticoid signatures were elevated, there was significant inter-patient variability in the signature scores. Baseline samples from a phase II study of abatacept in SLE was analyzed (Fleishaker D L, et. al., BMC Musculoskelet Disord 2016; 17:29) for expression of the glucocorticoid gene signature (FIG. 4B). […] However, there was again significant inter-patient variability in glucocorticoid gene signature scores in all groups. This could reflect steroid resistance in some patients or compliance issues with some patients.
Baseline PAXgene collections and complete blood counts were obtained from 144 adults with SLE meeting the criteria of a British Isles Lupus Assessment Group (BILAG) score of A or B. The population at baseline consisted of 53% of patients with polyarthritis, 35% with discoid lupus, and 12% with serositis. […]

[2] = system: peripheral blood mononuclear cells (PBMCs); assay: Gene expression profiling of PBMCs cultured with prednisolone or DMSO (Affymetrix); assay type: cell-based, human; conditions: 1 μM prednisolone, 6 hours
Protocol: In order to monitor glucocorticoid-dependent responses in peripheral blood, genes modulated by prednisolone in human PBMCs were identified. PBMCs from 10 independent normal healthy volunteer donors were treated with either DMSO control or 1 μM prednisolone for 6 hours.
Lymphocytes were isolated from the blood of 10 independent donors using Ficoll gradient centrifugation. Cells were cultured at 5 million lymphocytes/well of a 96-well flat-bottom block plate (Qiagen, Hilden, Germany) in 500 μl assay media (RPMI-1640 with GlutaMAX, 10% charcoal-stripped fetal bovine serum; Gibco Laboratories, Gaithersburg, Md., USA). Cells were cultured for 6 hours with either dimethyl sulfoxide (DMSO) vehicle or 1 μM prednisolone. After 6 hours, cells were pelleted and resuspended in 1 ml nucleic acid purification lysis solution (Applied Biosystems, Foster City, Calif., USA) diluted 1:2 with calcium and magnesium-free phosphate-buffered saline (Invitrogen, Carlsbad, Calif., USA). Cells were incubated in lysis buffer for 10 min at room temperature followed by storage at −80° C. RNA was isolated using the Qiagen RNeasy isolation kit according to manufacturer's instructions. […]

whole blood = assay: Whole blood cultured in vitro, GC gene signature (ssGSEA) score; assay type: cell-based, human
From the text: Many of these genes were known glucocorticoid-regulated genes (Chinenov Y, et. al., BMC Genomics 2014; 15:656). […] Network analysis of the regulated genes indicated enrichment for immune-response pathways. Single-sample gene set enrichment analysis (ssGSEA) algorithm was used to generate a composite score (or gene signature) for enrichment of these genes in the transcriptomes of individual samples (Barbie D A, et. al. Nature 2009; 462:108-12).
For profiling of whole blood, anticoagulant citrate dextrose solution A-containing whole blood from 4 normal healthy volunteers was cultured with either DMSO vehicle, 200 nM prednisolone, 1 μM prednisolone, 5 μM prednisolone, 5 μM GR modulators BMS-791826, or 10 μM BMS-776532 for 5 hours, followed by transfer to a PAXgene tube. Total RNA was isolated, and then treated with DNase I and cleaned up using a Qiagen RNeasy MinElute Cleanup Kit. RNA concentrations were determined using NanoDrop (Thermo Fisher Scientific, Waltham, Mass., USA) and RNA quality was evaluated using the Experion electrophoresis system (Bio-Rad Laboratories, Hercules, Calif., USA). All target labeling reagents were purchased from Affymetrix (West Sacramento, Calif., USA).
Double-stranded cDNAs were synthesized from 1 μg of total RNA through reverse transcription with an oligo-dT primer containing the T7 RNA polymerase promoter and double-strand conversion using the cDNA Synthesis System (Invitrogen, Carlsbad, Calif., USA). Biotin-labeled cRNA was generated from the cDNA and used to probe a Human Genome HT_HG-U133A plate (Affymetrix, Sunnyvale, Calif., USA), consisting of 96 single HG-U133A arrays in a 96-well plate. All cDNA and cRNA target preparation steps were processed on a Caliper GeneChip Array Station from Affymetrix. Array hybridization, washing, and scanning were performed according to the manufacturer's recommendations. […]

[3] = system: GC gene signature in whole blood; assay: In vivo GC gene signature, Prednisoline in Healthy Male Cohort 2; design: species or system human; conditions: normal healthy volunteers, oral, 10 mg prednisolone or 150 or 300 mg BMS-791826, 4 hours post-dosing, versus pre-dose and placebo (FIG. 3A)
Protocol: (§1) Since the glucocorticoid (GC) signature accurately captured glucocorticoid receptor (GR) agonist activity in vitro, the behavior of the GC gene signature in vivo was tested. Normal healthy volunteers (NHV) were dosed with placebo, 10 mg prednisolone, or 150 or 300 mg GR modulator BMS-791826. Blood was drawn before and 4 hours post-dosing, and RNA was analyzed by Affymetrix gene expression profiling. […] To address the kinetics of the GC gene signature response, whole blood RNA profiles from NHVs who were administered different doses of prednisolone was analyzed. […] For all but the highest dose of prednisolone, GC gene signature scores had returned to baseline levels by 8 hours post-dose. The signature score was at baseline levels in all groups by 48 hours post-dosing.
To score an individual sample by the enrichment level of GC gene signatures, we adapted the single-sample gene set enrichment analysis (ssGSEA) algorithm (Barbie D A, et. al., Nature 2009; 462:108-12) to generate a composite score, which was implemented using the Gene Set Variation Analysis package in R (version 3.4.0, Hanzelmann S, et. al., BMC Bioinformatics 2013; 14:7). The algorithm was modified so that enrichment scores fell between −1 and 1, representing the lowest to the highest possible rankings of GC genes in the transcriptome. […]

[4] = system: GC gene signature in whole blood; assay: In vivo GC gene signature kinetics, Prednisoline in Healthy Male Cohort 1; design: species or system human
Protocol: as §1
To score an individual sample by the enrichment level of GC gene signatures, we adapted the single-sample gene set enrichment analysis (ssGSEA) algorithm (Barbie D A, et. al., Nature 2009; 462:108-12) to generate a composite score, which was implemented using the Gene Set Variation Analysis package in R (version 3.4.0, Hanzelmann S, et. al., BMC Bioinformatics 2013; 14:7). The algorithm was modified so that enrichment scores fell between −1 and 1, representing the lowest to the highest possible rankings of GC genes in the transcriptome.
Male normal healthy volunteers were randomly assigned (6 participants/group) to receive daily doses of 5, 10, or 30 mg prednisolone for 7 days. Two participants received placebo. PAXgene tubes were collected before dosing and at 2, 4, 8, 48, 144, and 216 hours post-dose.

[5] = system: glucocorticoid-regulated genes in whole blood; assay: Whole blood induction of single genes, prednisolone versus placebo, Prednisoline in Healthy Male cohort 2; assay type: in vivo, human
From the text: Further refinement of the 64 member gene signature would facilitate implementation in the clinic. […] The list was further filtered for detectable expression in the abatacept SLE trial. Of the initial 64 genes, 18 (FKBP5, ECHDC3, IL1R2, ZBTB16, IRS2, IRAK3, ACSL1, DUSP1, PHC2, TLR2, TSC22D3, SLA, CRISPLD2, MAN2A2, FAR2, CEBPD, SPTLC2, HSPA6) met these criteria. The top 3 genes (FKBP5, ECHDC3 and IL1R2), top 6 genes (FKBP5, ECHDC3 IL1R2, ZBTB16, IRS2, IRAK3) and top 8 genes (FKBP5, ECHDC3, IL1R2, ZBTB16, IRS2, IRAK3, ACSL1, DUSP1) from the list were then used to calculate ssGSEA scores.
CEL files from the Affymetrix Array Station were processed and normalized using the Robust Multi-Array Average (RMA) algorithm (Gautier I, et. al., Bioinformatics 2004; 20:307-15) using the “Affy” package in R (version 3.2.1; 16) and Bioconductor (Gentleman R C, et. al. Genome Biol. 2004, 5 (10):R80) with custom CDF files from BrainArray (version 18.0.0; Dai M, et. al., Nucleic Acids Res 2005; 33:e175). Differential gene expression analysis was run to compare gene expression levels in prednisolone-treated versus control samples, using a moderated t-test (Ritchie M E, et. al., Nucleic Acids Res 2015; 43:e47) in Array Studio (OmicSoft, Cary, N.C., USA). P values were adjusted using the multiple test correction method which is also called false discovery rate (FDR, Benjamini Y, et. al., J. Royal Statistical Soc., Series B 1995; 57:289).
Male normal healthy volunteers were randomly assigned to receive either a placebo of polyethylene glycol (PEG)-400 solution (4 participants); a single daily oral dose of GR modulator BMS-791826 (150 or 300 mg) as a PEG-400 solution (6 participants/dose); or a single daily dose of 10 mg prednisolone (4 participants) for 3 consecutive days. PAXgene tubes were collected before dosing and at 4 hours post-dose on day 1.

## C[C@]12C=CC(=O)C=C1CC[C@@H]1[C@@H]2C(=O)C[C@@]2(C)[C@H]1CC[C@]2(O)C(=O)CO [prednisone]
[1]
  glucocorticoid gene signature scores versus reported dose: generally aligned well with reported prednisone dose

## C[C@]12C=CC(=O)C=C1CC[C@@H]1[C@@H]2[C@@H](O)C[C@@]2(C)[C@H]1CC[C@]2(O)C(=O)CO [prednisolone]
[2]; FDR-adjusted P ≤0.05, genes of FIG. 1A
  fold change of upregulated genes versus vehicle: > 2 fold
[2]; FDR-adjusted P ≤0.05, genes of FIG. 1B
  fold change of downregulated genes versus vehicle: > 2 fold
Whole blood; 5 μM prednisolone, 5 μM BMS-791826, 10 μM BMS-776532, 5 hours (FIG. 2E)
  glucocorticoid gene signature score, rank order: prednisolone>BMS-791826>BMS-776532
Whole blood; whole blood, different concentrations of prednisolone, 5 hours (FIG. 1C)
  ssGSEA score for the upregulated genes: increased dose dependently
Whole blood; whole blood, different concentrations of prednisolone, 5 hours (FIG. 1D)
  expression of the downregulated genes (ssGSEA score): decreased in a dose-dependent manner
[3]
  GC signature score: significantly elevated
[4]; 5, 10 or 30 mg prednisolone
  time of peak of GC gene signature score post-dose: 4 h
[4]; all but the highest dose of prednisolone
  time by which GC gene signature scores had returned to baseline: ≤ 8 h
[4]; all groups
  time by which signature score was at baseline levels: ≤ 48 h
[4]; normal healthy volunteers, 5, 10 or 30 mg prednisolone (FIG. 3B)
  GC gene signature score, dose dependence: increased dose dependently
[5]
  logFC ACSL1: 1.43
  logFC CEBPD: 0.86
  logFC CRISPLD2: 0.94
  logFC DUSP1: 1.37
  logFC ECHDC3: 2.34
  logFC FAR2: 0.88
  logFC FKBP5: 2.85
  logFC HSPA6: 0.67
  logFC IRAK3: 1.45
  logFC IRS2: 1.75
  logFC MAN2A2: 0.91
  logFC PHC2: 1.15
  logFC SLA: 0.98
  logFC SPTLC2: 0.75
  logFC TLR2: 1.11
  logFC TSC22D3: 1.08
  logFC ZBTB16: 2.04
